Data: US20040138315A1 (priority 2000, published 2004)
Like-named read-outs stand apart in the source and are kept apart here.

Legend:
thromboxane A2 synthase [1] = molecular target: T1, thromboxane A2 synthase (Oryctolagus cuniculus, UniProt G1TAZ9); test: Thromboxane A2 synthase inhibition, TXB2 radioimmunoassay (194000); format: biochemical, rabbit; conditions: for Thromboxane synthase inhibition (in words): screened at 100 μM
T1 sequence (G1TAZ9 1-530): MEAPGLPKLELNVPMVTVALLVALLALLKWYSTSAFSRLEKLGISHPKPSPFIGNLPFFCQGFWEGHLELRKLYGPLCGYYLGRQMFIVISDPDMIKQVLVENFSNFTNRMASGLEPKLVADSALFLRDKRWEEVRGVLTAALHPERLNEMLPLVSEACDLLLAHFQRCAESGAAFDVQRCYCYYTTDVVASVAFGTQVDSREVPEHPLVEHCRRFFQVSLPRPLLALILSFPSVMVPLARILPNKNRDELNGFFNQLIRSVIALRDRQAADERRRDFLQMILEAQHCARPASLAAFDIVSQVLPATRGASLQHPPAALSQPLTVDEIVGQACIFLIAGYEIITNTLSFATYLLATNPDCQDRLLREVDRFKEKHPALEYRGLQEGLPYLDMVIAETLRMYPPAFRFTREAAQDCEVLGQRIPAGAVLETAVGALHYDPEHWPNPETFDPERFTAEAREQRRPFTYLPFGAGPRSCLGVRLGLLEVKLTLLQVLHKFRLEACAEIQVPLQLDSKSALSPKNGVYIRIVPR
Method: Test compounds (IG-1 through IG-11) were evaluated for their ability to inhibit cyclooxygenase COX-1, cyclooxygenase COX-2, and thromboxane synthase. In these assays, in addition to the designations set forth above, IG-05 refers to resorcinol and IG-06 refers to orcinol.
To assess Thromboxane A2 synthase, thromboxane A2 synthase isolated from a microsomal fraction of rabbit platelets by conventional centrifugation was used. The test compound and/or vehicle was incubated with 1:200 dilution of thromboxane A2 synthase and 5 ng prostaglandin G2 as substrate in Tris buffer pH 7.5 for 30 minutes at 37° C. The thromboxane A2 formed is immediately converted to thromboxane B2, which was quantitated by a radioimmunoassay. Compounds are screened at 100 μM.

thromboxane A2 synthase [2] = molecular target: T1, thromboxane A2 synthase; conditions: reference compound, historical; read-out: Historical IC50, Thromboxane Synthetase; cited from earlier work
[3] = test system: adenosine diphosphate-induced aggregation of platelet rich plasma (ADP receptor); test: Adenosine diphosphate, platelet aggregation (404010); format: cell-based, rabbit; conditions: 30 μM, platelet rich plasma, rabbit; for AG. (agonist response), ADP platelet aggregation: relative to […] ADP
Method: (§1) Test compounds referred to above were evaluated for inhibition of platelet aggregation induced by adenosine diphosphate, arachidonic acid, phorbol ester and Platelet Activating Factor (PAF) at […]. The following methods were employed in this analysis, and reference compounds for the respective assays are indicated in Appendix 1:
Venous blood obtained from male or female New Zealand derived albino rabbits weighing 2.5-3 kg was mixed with one-tenth volume of trisodium citrate (0.13 M) and centrifuged at room temperature for 10 min at 220 g. Test substance (30 EM)-induced aggregation of the supernatant platelet rich plasma by 50 percent or more (>50%) more relative to 1.2 μM adenosine diphosphate control response at 37° C. as mearsured by an optical aggregometer, indicates possible ADP receptor agonist activity.
At a test substance concentration where no significant agonist activity is seen, ability to reduce the adenosine diphosphate-induced maximum non-reversible aggregation response by 50 percent or more (≧50%) was indicative of ADP receptor antagonist activity.

[4] = test system: arachidonic acid-induced aggregation of platelet rich plasma; test: Arachidonic acid, platelet aggregation (412510); format: cell-based, rabbit; conditions: 30 μM, platelet rich plasma, rabbit; for AG. (agonist response), arachidonic acid platelet aggregation: relative to 100 μM arachidonic acid
Method: as §1
Venous blood obtained from male or female New Zealand derived albino rabbits weighting 2.5-3 kg was mixed with one-tenth volume of trisodeium citrate (0.13M) and centrifuged at room temperature for 10 min at 220 g. Test substance (30 μM)-induced aggregation of the supernatant platelet rich plasma by 50 percent or more (≧50%) within 5 min, relative to 100 μM arachidonic acid response at 37° C. as measured by an optical aggregometer indicates possible agonist activity.
At a test substance concentration where no significant agonist activity is seen, ability to reduce the arachidonic acid-induced maximum non-reversible aggregation response by 50 percent or more (>50%) was indicative of antagonist activity.

[5] = test system: PMA-induced aggregation of platelet rich plasma (phorbol ester receptor); test: Phorbol ester, platelet aggregation (461500); format: cell-based, rabbit; conditions: 30 μM, platelet rich plasma, rabbit; for AG. (agonist response), phorbol ester platelet aggregation: relative to PMA 0.5 μM
Method: as §1
(§2) Venous blood obtained from male or female New Zealand derived albino rabbits weighing 2.5-3 kg is mixed with one-tenth volume of trisodium citrate (0.13 M) and centrifuged at room temperature for 10 min at 220 g. Test substance (30 μM)-induced aggregation of the supernatant platelet rich plasma by 50 percent or more (≧50%) within 5 min, relative to control phorbol myristate acetate (PMA, 0.5 μM) response at 37° C. as measured by an optical aggregometer, indicates possible phorbol ester receptor agonist activity.
At a test substance concentration where no significant agonist activity is seen, ability to reduce the PMA (0.5 μM)-induced maximum non-reversible aggregation response by 50 percent or more (>50%) indicates phorbol ester receptor antagonist activity.

[6] = test system: PAF-acether-induced aggregation of platelet rich plasma (PAF receptor); test: PAF, platelet aggregation (463010); format: cell-based, rabbit; conditions: 30 μM, platelet rich plasma, rabbit; for AG. (agonist response), PAF platelet aggregation: relative to 5 nM PAF-acether
Method: as §1
as §2, with “temperture” for “temperature”, “Substance” for “substance”, “5 nM platelet activating factor-acether (PAF-acether)” for “phorbol myristate acetate (PMA, 0.5 μM)”, “37[…]” for “37° C.”, “PAF” for “phorbol ester”
At a test substance concentration where no significant agonist activity is seen, ability to reduce the PAF-acether-induced maximum non-reversible aggregation response by 50 percent or more (≧50%) indicates PAF receptor antagonist activity.

cyclooxygenase COX-1 = molecular target: T2, cyclooxygenase COX-1 (Homo sapiens, UniProt P23219); test: Cyclooxygenase COX-1 inhibition in human platelets, PGE2 EIA (116010); format: cell-based; conditions: screened at 10 μM
T2 construct: host or cells: human platelets
T2 sequence (P23219 24-599): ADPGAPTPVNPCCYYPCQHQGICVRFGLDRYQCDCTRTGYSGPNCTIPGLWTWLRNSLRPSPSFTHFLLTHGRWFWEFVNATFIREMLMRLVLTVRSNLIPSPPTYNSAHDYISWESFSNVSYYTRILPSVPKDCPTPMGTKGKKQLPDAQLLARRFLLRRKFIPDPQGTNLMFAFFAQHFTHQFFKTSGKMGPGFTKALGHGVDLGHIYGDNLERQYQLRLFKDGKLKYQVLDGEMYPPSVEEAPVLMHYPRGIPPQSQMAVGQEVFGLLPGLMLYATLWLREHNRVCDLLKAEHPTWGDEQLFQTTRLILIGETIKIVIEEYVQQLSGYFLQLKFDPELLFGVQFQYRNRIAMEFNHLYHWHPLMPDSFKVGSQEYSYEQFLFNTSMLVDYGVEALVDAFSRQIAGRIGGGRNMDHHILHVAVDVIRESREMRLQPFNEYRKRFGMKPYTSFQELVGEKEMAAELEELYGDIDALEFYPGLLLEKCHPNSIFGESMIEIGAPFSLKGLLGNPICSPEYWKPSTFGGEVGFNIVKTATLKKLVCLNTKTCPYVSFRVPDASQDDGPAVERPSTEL
Method: (§3) In these assays, in addition to the designations set forth above, IG-05 refers to resorcinol and IG-06 refers to orcinol.
To assess COX-1 inhibition, test compound and/or vehicle was incubated with human platelets (5×10^7/well) for 15 minutes at5 37° C. Calcium ionophore A23187 (10 μM) was added to induce the arachidonic acid cascade. After another 15 minutes incubation at 37° C., PGE2 levels in the supernatant were quantiated using the Amersham EIA kit. Compounds were screened at 10 μM.

[7] = molecular target: T3, cyclooxygenase-2 (human recombinant) (Homo sapiens, UniProt P35354); test: Cyclooxygenase COX-2 inhibition, recombinant enzyme, PGE2 EIA (118010); format: biochemical; conditions: screened at 10 μM
T3 construct: 118010; host or cells: Spodoptera frugiperda (insect cells)
T3 sequence (P35354 18-604): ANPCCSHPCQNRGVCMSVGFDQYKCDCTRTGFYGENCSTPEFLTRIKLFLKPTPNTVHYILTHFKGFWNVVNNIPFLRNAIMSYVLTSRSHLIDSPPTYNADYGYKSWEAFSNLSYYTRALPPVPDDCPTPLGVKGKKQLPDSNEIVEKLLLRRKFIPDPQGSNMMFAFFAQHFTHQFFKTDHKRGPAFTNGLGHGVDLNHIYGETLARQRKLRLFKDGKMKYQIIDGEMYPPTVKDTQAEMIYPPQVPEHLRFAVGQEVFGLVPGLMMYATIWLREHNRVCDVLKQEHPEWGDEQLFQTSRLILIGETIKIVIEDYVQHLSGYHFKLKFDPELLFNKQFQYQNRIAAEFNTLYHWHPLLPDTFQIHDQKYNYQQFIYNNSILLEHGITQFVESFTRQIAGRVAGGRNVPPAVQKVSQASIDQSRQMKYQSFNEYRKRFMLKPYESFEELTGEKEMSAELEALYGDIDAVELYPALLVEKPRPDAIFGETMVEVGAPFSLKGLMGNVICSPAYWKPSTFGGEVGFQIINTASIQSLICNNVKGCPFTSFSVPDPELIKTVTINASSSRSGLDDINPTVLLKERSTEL
Method: as §3
Following centrifugation, substrate conversion to PGE2 was measured by an Amersham EIA kit. Compounds are screened at 10 μM.

Cannabinoid CB1 = molecular target: T4, Cannabinoid CB1 (Mus musculus, UniProt P47746); test: Cannabinoid CB1 tissue assay, vas deferens (416000); format: cell-based; conditions: 30 μM
T4 construct: tissue 416000; host or cells: vas deferens
T4 sequence (P47746 whole entry): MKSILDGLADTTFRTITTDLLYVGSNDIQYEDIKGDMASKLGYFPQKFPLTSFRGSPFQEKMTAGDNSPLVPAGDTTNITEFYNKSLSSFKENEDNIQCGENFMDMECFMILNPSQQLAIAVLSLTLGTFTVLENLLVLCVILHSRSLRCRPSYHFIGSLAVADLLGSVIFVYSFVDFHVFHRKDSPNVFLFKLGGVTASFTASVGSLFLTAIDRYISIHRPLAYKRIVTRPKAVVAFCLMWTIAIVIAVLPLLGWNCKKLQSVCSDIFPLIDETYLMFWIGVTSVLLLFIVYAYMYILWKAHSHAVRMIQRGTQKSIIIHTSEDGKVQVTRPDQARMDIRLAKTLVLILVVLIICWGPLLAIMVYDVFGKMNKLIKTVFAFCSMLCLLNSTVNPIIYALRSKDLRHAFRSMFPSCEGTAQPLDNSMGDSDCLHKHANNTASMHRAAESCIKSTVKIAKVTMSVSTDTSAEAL

Row | Compound | melting point | IC50 (thromboxane A2 synthase [1]; reference compound, concurrent, read-out: Concurrent IC50, Thromboxane Synthetase) | IC50 (thromboxane A2 synthase [2]) | ANT. (antagonist response), ADP platelet aggregation [3] | AG. (agonist response), ADP platelet aggregation [3] | ANT. (antagonist response), arachidonic acid platelet aggregation [4] | AG. (agonist response), arachidonic acid platelet aggregation [4] | ANT. (antagonist response), phorbol ester platelet aggregation [5] | AG. (agonist response), phorbol ester platelet aggregation [5] | ANT. (antagonist response), PAF platelet aggregation [6] | AG. (agonist response), PAF platelet aggregation [6] | COX-1 inhibition (in words) (cyclooxygenase COX-1) | COX-2 inhibition (in words) [7] | Thromboxane synthase inhibition (in words) (thromboxane A2 synthase [1]) | AG. (agonist response), Cannabinoid CB1 (Cannabinoid CB1)
1 | CC(C)CCCC(C)(C)c1cc(O)cc(O)c1 | 95 to 96 °C | – | – | – | – | – | – | – | – | – | – | – | – | – | –
2 | O=C(O)c1ccc(OCCn2ccnc2)cc1 [Dazoxiben, reference compound] | – | 0.061 µM | 0.022 µM | – | – | – | – | – | – | – | – | – | – | – | –
3 | Cc1c(O)cc(C(C)(C)CCCC(C)C)cc1O [IG-10, 2-Methyl-5-(1,1,5-trimethylhexyl)resorcinol] | 145 to 147 °C | – | – | 17% | 0% | 100% | 0% | 9% | 0% | 6% | 0% | potent inhibitors of COX-1 | not COX-2 | significantly inhibit thromboxane synthase | –
4 | Cc1ccc2c(c1)-c1c(O)cc(C(C)(C)CCCC(C)C)cc1OC2(C)C [IG-11, 3-Norpentyl-3-(1,1,5-trimethylhexyl)cannabinol] | – | – | – | 0% | 0% | 0% | 0% | 8% | 0% | 11% | 0% | – | – | significantly inhibit thromboxane synthase | 102%
